Where two headings read alike, the source gives them in different places.
Experiments:
[1] = tested on: the four isomaltases (Ima1p, Ima2p, Ima3p, Ima5p); test: Effects of chemical reagents and metal ions on purified isomaltases; type: biochemical, Saccharomyces cerevisiae
Ima3p [2] = biological target: T1, Ima3p (Saccharomyces cerevisiae, UniProt P0CW40); settings: addition of EDTA, 5 mM; 5 mM pNPG as substrate
Ima1p [3] = biological target: T2, Ima1p (Saccharomyces cerevisiae, UniProt P53051); test: Effects of chemical reagents and metal ions on purified isomaltases; type: biochemical; settings: 5 mM pNPG as substrate; for effect on activity: Mg2+ 5 mM, Mn2+ 1 mM
T2 sequence (P53051 whole entry): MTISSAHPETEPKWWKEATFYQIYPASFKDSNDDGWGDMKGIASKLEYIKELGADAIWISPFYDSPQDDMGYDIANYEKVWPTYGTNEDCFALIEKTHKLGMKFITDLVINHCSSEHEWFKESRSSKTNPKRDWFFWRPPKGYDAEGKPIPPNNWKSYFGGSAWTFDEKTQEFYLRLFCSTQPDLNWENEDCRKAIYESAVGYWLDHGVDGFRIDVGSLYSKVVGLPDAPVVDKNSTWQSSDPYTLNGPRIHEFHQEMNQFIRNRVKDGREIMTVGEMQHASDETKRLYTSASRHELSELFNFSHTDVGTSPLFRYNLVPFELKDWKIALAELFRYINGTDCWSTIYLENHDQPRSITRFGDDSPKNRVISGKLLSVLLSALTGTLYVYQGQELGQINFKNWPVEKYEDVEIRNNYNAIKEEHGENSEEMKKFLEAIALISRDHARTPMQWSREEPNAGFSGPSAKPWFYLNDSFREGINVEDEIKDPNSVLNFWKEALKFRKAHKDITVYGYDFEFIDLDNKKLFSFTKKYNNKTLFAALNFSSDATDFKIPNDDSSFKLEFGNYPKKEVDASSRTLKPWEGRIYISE

Ima1p [4] = biological target: T2, Ima1p; test: Substrate specificity of purified isomaltase; type: biochemical; settings: 100 mM substrate (pNPG 5 mM), pH 7, 30 °C; for Specific activities: citrate–potassium phosphate buffer
Ima2p [5] = biological target: T3, Ima2p (Saccharomyces cerevisiae, UniProt Q08295); test: Substrate specificity of purified isomaltase; type: biochemical; settings: 100 mM substrate (pNPG 5 mM), pH 7, 30 °C; for Specific activities: citrate–potassium phosphate buffer
T3 sequence (Q08295 whole entry): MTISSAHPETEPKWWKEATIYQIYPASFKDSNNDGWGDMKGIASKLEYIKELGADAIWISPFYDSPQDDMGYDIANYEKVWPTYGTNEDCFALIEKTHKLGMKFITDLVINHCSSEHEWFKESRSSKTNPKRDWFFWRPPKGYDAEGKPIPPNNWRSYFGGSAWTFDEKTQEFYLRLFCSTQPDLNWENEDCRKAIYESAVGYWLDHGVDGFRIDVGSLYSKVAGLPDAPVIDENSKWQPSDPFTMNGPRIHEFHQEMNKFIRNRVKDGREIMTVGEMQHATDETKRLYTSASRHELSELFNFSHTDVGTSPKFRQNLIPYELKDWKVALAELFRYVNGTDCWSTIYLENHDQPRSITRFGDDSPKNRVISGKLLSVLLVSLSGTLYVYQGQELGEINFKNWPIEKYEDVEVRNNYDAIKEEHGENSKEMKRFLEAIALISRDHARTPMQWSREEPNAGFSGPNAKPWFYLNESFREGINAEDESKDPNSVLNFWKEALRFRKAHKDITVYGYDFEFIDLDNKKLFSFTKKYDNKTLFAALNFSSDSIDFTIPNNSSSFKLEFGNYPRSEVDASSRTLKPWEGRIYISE

Ima3p [6] = biological target: T1, Ima3p; test: Substrate specificity of purified isomaltase; type: biochemical; settings: 100 mM substrate (pNPG 5 mM), pH 7, 30 °C; for Specific activities: citrate–potassium phosphate buffer
Ima5p [7] = biological target: T4, Ima5p (Saccharomyces cerevisiae, UniProt P40884); test: Substrate specificity of purified isomaltase; type: biochemical; settings: 100 mM substrate (pNPG 5 mM), pH 7, 30 °C; for Specific activities: citrate–potassium phosphate buffer
T4 sequence (P40884 1-581): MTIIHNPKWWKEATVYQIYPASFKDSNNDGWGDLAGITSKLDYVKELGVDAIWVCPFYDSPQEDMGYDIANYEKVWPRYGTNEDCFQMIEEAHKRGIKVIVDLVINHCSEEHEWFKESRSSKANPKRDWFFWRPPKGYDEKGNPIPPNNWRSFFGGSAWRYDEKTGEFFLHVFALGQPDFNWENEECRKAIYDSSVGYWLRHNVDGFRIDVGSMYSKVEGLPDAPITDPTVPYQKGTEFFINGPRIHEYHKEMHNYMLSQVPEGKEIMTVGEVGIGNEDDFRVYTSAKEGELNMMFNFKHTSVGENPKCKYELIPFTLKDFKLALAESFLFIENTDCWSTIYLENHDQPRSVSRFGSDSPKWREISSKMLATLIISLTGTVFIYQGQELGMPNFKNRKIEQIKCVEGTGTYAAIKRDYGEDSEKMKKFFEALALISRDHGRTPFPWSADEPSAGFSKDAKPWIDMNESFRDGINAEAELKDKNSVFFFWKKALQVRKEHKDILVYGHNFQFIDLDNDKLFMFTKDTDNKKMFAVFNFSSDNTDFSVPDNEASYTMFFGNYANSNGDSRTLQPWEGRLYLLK

Ima1p [8] = biological target: T2, Ima1p; test: Inhibition by maltose of isomaltose hydrolysis; type: biochemical
Ima5p [9] = biological target: T4, Ima5p; test: Inhibition by maltose of isomaltose hydrolysis; type: biochemical; settings: isomaltose up to 50 mM
[10] = tested on: the four isomaltases (Ima1p, Ima2p, Ima3p, Ima5p); test: Activity of the isomaltases on substrates; type: biochemical, Saccharomyces cerevisiae; settings: for activity on the substrate: all Ima proteins
[11] = tested on: the four isomaltases (Ima proteins); test: Effect of compounds on melting temperature of isomaltases; set-up: species or system Saccharomyces cerevisiae
Ima1p [12] = biological target: T2, Ima1p; settings: isomaltose 50–500 mM; cited from earlier work
Ima3pL240P = Ima3pL240P (Saccharomyces cerevisiae, UniProt P0CW40, L240P); test: Substrate specificity of purified isomaltase variant; type: biochemical; settings: 100 mM substrate (pNPG 5 mM), citrate–potassium phosphate buffer, pH 7, 30 °C
Chain of Ima3pL240P (P0CW40 whole entry L240P): as the sequence (Q08295 whole entry) above, with A54T, Q279R counted along it

Ima3pR279Q = Ima3pR279Q (Saccharomyces cerevisiae, UniProt P0CW40, R279Q); test: as above; type: biochemical; settings: 100 mM substrate (pNPG 5 mM), citrate–potassium phosphate buffer, pH 7, 30 °C
Chain of Ima3pR279Q (P0CW40 whole entry R279Q): as the sequence (Q08295 whole entry) above, with A54T, P240L counted along it

Ima1p [13] = biological target: T2, Ima1p; test: Kinetic parameters for selected substrates; type: biochemical
Ima2p [14] = biological target: T3, Ima2p; test: Kinetic parameters for selected substrates; type: biochemical
Ima3p [15] = biological target: T1, Ima3p; test: Kinetic parameters for selected substrates; type: biochemical
Ima5p [16] = biological target: T4, Ima5p; test: Kinetic parameters for selected substrates; type: biochemical; settings: for kcat: mean ± SEM
Ima1p [17] = biological target: T2, Ima1p; test: Inhibition by acarbose of isomaltose hydrolysis; type: biochemical; settings: read-out: residual activity
[18] = inhibition by high concentration of substrate
[19] = affinity constant for the substrate, mean ± SEM
[20] = substrate concentration increased to 10 mM

T1 sequence (P0CW40 whole entry): as the sequence (Q08295 whole entry) above, with A54T, P240L, Q279R counted along it

Q: For `[Ca+2]` [Ca^2+], which effect on activity ([1]; addition of Ca2+, 5 mM) is on record?
A: None of the isoforms was affected

Q: Which effect on activity (Ima3p [2]) does the source give for `O=C(O)CN(CCN(CC(=O)O)CC(=O)O)CC(=O)O` [EDTA] here?
A: slightly inhibited

Q: With `[Fe+3]` [Fe^3+] as the compound, how does the residual activity (Ima1p [3]; 5 mM Fe3+, pH 7, 30 °C) read?
A: 8%

Q: Which results are given for `OC[C@H]1O[C@H](O[C@H]2[C@H](O)[C@@H](O)[C@H](O)O[C@@H]2CO)[C@H](O)[C@@H](O)[C@@H]1O` [Maltose, O-α-D-Glucosyl-(1→4)-α-D-glucose]?
A: Specific activities (Ima1p [4]): 0 µmol/min/mg; Specific activities (Ima2p [5]): 0 µmol/min/mg; Specific activities (Ima3p [6]): 0 µmol/min/mg; Specific activities (Ima5p [7]): 0 µmol/min/mg; type of inhibition (Ima1p [8]; at high substrate concentration): uncompetitive inhibition; type of inhibition (Ima1p [8]; at low substrate concentration): competitive inhibition; type of inhibition (Ima5p [9]): mixed inhibition; activity on the substrate [10]: totally inactive; effect on melting temperature ([11]; presence of maltose, results not shown): did not affect the melting temperature; type of inhibition (Ima1p [12]): competitive inhibitor

Q: For `[Mg+2]` [Mg^2+], which effect on activity (Ima1p [3]) is on record?
A: slightly enhanced

Q: For `[Mn+2]` [Mn^2+], which effect on activity (Ima1p [3]) is on record?
A: slightly enhanced

Q: Which results are given for `OC[C@H]1O[C@@](CO)(O[C@H]2O[C@H](CO)[C@@H](O)[C@H](O)[C@H]2O)[C@@H](O)[C@@H]1O` [Sucrose, O-α-D-Glucosyl-(1→2)-β-D-fructose]?
A: Specific activities (Ima1p [4]): 18.6 µmol/min/mg; relative activity, velocity on isomaltose set to 100 (Ima1p [4]): 31%; relative activity, velocity on isomaltose set to 100 (Ima1p [4]; listed as sucrose): approx. 35%; Specific activities (Ima2p [5]): 19.7 µmol/min/mg; relative activity, velocity on isomaltose set to 100 (Ima2p [5]): 36%; relative activity, velocity on isomaltose set to 100 (Ima2p [5]; listed as sucrose): approx. 35%; Specific activities (Ima3p [6]): 10.2 µmol/min/mg; relative activity, velocity on isomaltose set to 100 (Ima3p [6]): 142%; Specific activities (Ima5p [7]): 1.2 µmol/min/mg; relative activity, velocity on isomaltose set to 100 (Ima5p [7]): 2%; Specific activities (Ima3pL240P): 11.2 µmol/min/mg; Specific activities (Ima3pR279Q): 22 µmol/min/mg; Ki (Ima1p [13]; [18]): None; kcat (Ima1p [13]; mean ± SEM): 51 ± 4 s⁻¹; Ki (Ima2p [14]; [18]): None; kcat (Ima2p [14]; mean ± SEM): 55 ± 4 s⁻¹; catalytic efficiency on sucrose, times lower than on isomaltose (Ima3p [15]): 2 times; catalytic efficiency on sucrose, times lower than on palatinose (Ima3p [15]): 4 times; Ki (Ima3p [15]; [18]): None; kcat (Ima3p [15]; mean ± SEM): 25 ± 1 s⁻¹; lower activity of Ima5p than Ima1p (Ima5p [16]): 10 fold; Ki (Ima5p [16]; [18]): None; kcat (Ima5p [16]): 3.8 ± 0.2 s⁻¹

Q: For `NC(CO)(CO)CO` [Tris], which “inhibition of the activity” value ([1]; 5 mM Tris) is on record?
A: 90%

Q: What about the “increase of Tm of the 4 proteins” value ([11]; Tris 5 mM, assay at pH 7.0, results not shown) of the same compound?
A: about 5 °C

Q: For `C[C@H]1O[C@H](O[C@H]2[C@H](O)[C@@H](O)[C@@H](O[C@H]3[C@H](O)[C@@H](O)C(O)O[C@@H]3CO)O[C@@H]2CO)[C@H](O)[C@@H](O)[C@@H]1N[C@H]1C=C(CO)[C@@H](O)[C@H](O)[C@H]1O` (stereo partly drawn) [acarbose], which remaining activity at 5000 µM (Ima1p [17]) is on record?
A: ~80%

Q: And the remaining activity at 20000 µM (Ima1p [17])?
A: ~40%

Q: For `OC[C@H]1O[C@H](OC[C@H]2O[C@H](O)[C@H](O)[C@@H](O)[C@@H]2O)[C@H](O)[C@@H](O)[C@H]1O` [melibiose, O-α-D-galactosyl-(1→6)-α-D-glucose], which “activity on the substrate” value [10] is on record?
A: inactive

Q: For `COC1OC(CO)C(O)C(O)C1O` (stereo not drawn) [α-MG, α-Methylglucopyranoside], which Specific activities (Ima1p [4]) is on record?
A: 52 µmol/min/mg

Q: What about the “relative activity, velocity on isomaltose set to 100” value (“relative activity, velocity” for short) (Ima1p [4]) of the same compound?
A: 87%

Q: And the Specific activities (Ima2p [5])?
A: 55 µmol/min/mg

Q: And the “relative activity, velocity” value (Ima2p [5])?
A: 102%

Q: What about the Specific activities (Ima3p [6]) of the same compound?
A: 11 µmol/min/mg

Q: And the “relative activity, velocity” value (Ima3p [6])?
A: 153%

Q: What about the Specific activities (Ima5p [7]) of the same compound?
A: 0 (0) μmol/min/mg

Q: What about the “relative activity, velocity” value (Ima5p [7]) of the same compound?
A: 0 (0) %

Q: And the Specific activities (Ima3pL240P)?
A: 6.5 µmol/min/mg

Q: And the Specific activities (Ima3pR279Q)?
A: 50 µmol/min/mg

Q: What about the Km (Ima1p [13]; [19]) of the same compound?
A: 27 ± 5 mM

Q: What about the kcat (Ima1p [13]; mean ± SEM) of the same compound?
A: 84 ± 8 s⁻¹

Q: And the Km (Ima2p [14]; [19])?
A: 28 ± 6 mM

Q: And the kcat (Ima2p [14]; mean ± SEM)?
A: 88 ± 9 s⁻¹

Q: What about the Km (Ima3p [15]; [19]) of the same compound?
A: 15 ± 2 mM

Q: And the Ki (Ima3p [15]; [18])?
A: None

Q: And the kcat (Ima3p [15]; mean ± SEM)?
A: 14 ± 1 s⁻¹

Q: And the Ki (Ima5p [16]; [18])?
A: None

Q: And the kcat (Ima5p [16])?
A: 0 s⁻¹

Q: Which Specific activities (Ima1p [4]) does the source give for `O=[N+]([O-])c1ccc(O[C@H]2O[C@H](CO)[C@@H](O)[C@H](O)[C@H]2O)cc1` [α-pNPG, 4-Nitrophenyl α-D-glucopyranoside] here?
A: 5.8 µmol/min/mg

Q: And the “relative activity, velocity” value (Ima1p [4])?
A: 10%

Q: What about the Specific activities (Ima2p [5]) of the same compound?
A: 7.7 µmol/min/mg

Q: What about the “relative activity, velocity” value (Ima2p [5]) of the same compound?
A: 14%

Q: And the Specific activities (Ima3p [6])?
A: 3.9 µmol/min/mg

Q: And the “relative activity, velocity” value (Ima3p [6])?
A: 54%

Q: And the Specific activities (Ima5p [7])?
A: 10 µmol/min/mg

Q: And the “relative activity, velocity” value (Ima5p [7])?
A: 15%

Q: What about the Specific activities (Ima3pL240P) of the same compound?
A: 5.5 µmol/min/mg

Q: And the Specific activities (Ima3pR279Q)?
A: 8.5 µmol/min/mg

Q: What about the Ki (Ima1p [13]) of the same compound?
A: 25 ± 15 mM

Q: What about the “drop of activity at high substrate concentration” value (“drop of activity” below) (Ima1p [13]; [20]) of the same compound?
A: 10%

Q: And the Ki (Ima2p [14])?
A: 12 ± 3 mM

Q: And the Ki (Ima3p [15])?
A: 9.8 ± 3.2 mM

Q: What about the “drop of activity” value (Ima3p [15]; [20]) of the same compound?
A: 33%

Q: And the Ki (Ima5p [16])?
A: 33 ± 21 mM

Q: What about the “drop of activity” value (Ima5p [16]; [20]) of the same compound?
A: 10%

Q: And the Km ([10]; read-out: affinity constants (Km), approximate, over the Ima proteins)?
A: ~0.5 mM

Q: For `O=[N+]([O-])c1ccc(O[C@@H]2O[C@H](CO)[C@@H](O)[C@H](O)[C@H]2O)cc1` [β-pNPG, 4-Nitrophenyl β-D-glucopyranoside], which Specific activities (Ima1p [4]) is on record?
A: 0 µmol/min/mg

Q: And the Specific activities (Ima2p [5])?
A: 0 µmol/min/mg

Q: What about the Specific activities (Ima3p [6]) of the same compound?
A: 0 µmol/min/mg

Q: And the Specific activities (Ima5p [7])?
A: 0 µmol/min/mg

Q: What about the “activity on the substrate” value [10] of the same compound?
A: no release of pNP

Q: For maltoheptaose, which “activity on the substrate” value [10] is on record?
A: No activity could be detected

Q: For maltopentaose, which “activity on the substrate” value [10] is on record?
A: No activity could be detected

— PMC3953731 (FEBS Open Bio, 2014)
